Test results taken from ChEMBL document CHEMBL1136176, “QSAR study on the affinity of some arylpiperazines towards the 5-HT1A/alpha1-adrenergic receptor using the E-state index” (Bioorg Med Chem Lett, 2003).

Assays:
Assay type in all cases: functional, tissue-based
[1] = target: T1, 5-hydroxytryptamine receptor 1A (Rattus norvegicus) (UniProt P19327); assay: Antagonistic activity against 5-hydroxytryptamine 1A receptor in rat cerebral cortex using [3H]-8-OH-DPAT as radioligand.
T1 sequence (whole entry): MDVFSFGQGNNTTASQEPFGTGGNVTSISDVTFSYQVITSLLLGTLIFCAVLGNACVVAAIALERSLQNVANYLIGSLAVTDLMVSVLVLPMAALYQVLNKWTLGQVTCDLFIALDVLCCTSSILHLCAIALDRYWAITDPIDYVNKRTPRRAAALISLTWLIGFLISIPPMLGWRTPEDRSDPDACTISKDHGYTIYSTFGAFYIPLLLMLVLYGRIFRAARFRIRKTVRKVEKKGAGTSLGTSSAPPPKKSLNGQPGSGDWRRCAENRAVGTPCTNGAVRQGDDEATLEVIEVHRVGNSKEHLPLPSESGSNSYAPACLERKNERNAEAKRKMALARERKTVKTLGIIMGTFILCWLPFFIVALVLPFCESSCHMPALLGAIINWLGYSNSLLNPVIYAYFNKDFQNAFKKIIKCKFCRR

[2] = target: T1, 5-hydroxytryptamine receptor 1A (Rattus norvegicus); assay: Antagonistic activity against 5-hydroxytryptamine 1A receptor in rat cerebral cortex using [3H]8-OH-DPAT as radioligand.
[3] = target: Adrenergic receptor alpha-1 (Rattus norvegicus) (UniProt P15823+P23944+P43140); assay: Antagonistic activity against alpha-1 adrenergic receptor in rat cerebral cortex using [3H]prazosin as radioligand.

SMILES | pK1 [1] | K1 [2] [nM] | K2 [3] [nM] | pK2 [3]
Cc1ccccc1N1CCN(CCCCN2CC(=O)N3CCCC3C2=O)CC1 (stereo unspecified) | 7.92 | 12 | 25 | 7.59
CCCOC(=O)c1ccccc1N1CCN(CCCCN2C(=O)C3CCCN3C2=O)CC1 (stereo unspecified) | 8.32 | 4.8 | 41 | 7.39
CC(C)C(=O)Nc1cccc(N2CCN(CCCN3CC(=O)N4CCCC4C3=O)CC2)c1 (stereo unspecified) | 6.57 | 266 | 1440 | 5.84
CCCNC(=O)c1ccccc1N1CCN(CCCCN2C(=O)C3CCCCN3C2=O)CC1 (stereo unspecified) | 6.42 | 378 | 521 | 6.28
N#Cc1ccccc1N1CCN(CCCN2CC(=O)N3CCCC3C2=O)CC1 (stereo unspecified) | 7.56 | 27 | 17 | 7.76
CCCOC(=O)c1ccccc1N1CCN(CCCCN2CC(=O)N3CCCCC3C2=O)CC1 (stereo unspecified) | 7.55 | 28 | 392 | 6.41
Cc1ccccc1N1CCN(CCCN2CC(=O)N3CCCC3C2=O)CC1 (stereo unspecified) | 7.31 | 48 | 17 | 7.76
Nc1cccc(N2CCN(CCCCN3C(=O)C4CCCCN4C3=O)CC2)c1 (stereo unspecified) | 7.17 | 68 | 231 | 6.64
N#Cc1ccccc1N1CCN(CCCN2C(=O)C3CCCCN3C2=O)CC1 (stereo unspecified) | 7.19 | 65 | 8.2 | 8.09
CCCCOc1ccccc1N1CCN(CCCN2CC(=O)N3CCCCC3C2=O)CC1 (stereo unspecified) | 7.04 | 92 | 13 | 7.89
Cc1ccccc1N1CCN(CCCCN2CC(=O)N3CCCCC3C2=O)CC1 (stereo unspecified) | 7.5 | 32 | 27 | 7.56
CCCNC(=O)c1ccccc1N1CCN(CCCCN2CC(=O)N3CCCC3C2=O)CC1 (stereo unspecified) | 5.91 | 1230 | 1350 | 5.87
CC(C)C(=O)Nc1cccc(N2CCN(CCCN3C(=O)C4CCCCN4C3=O)CC2)c1 (stereo unspecified) | 6.11 | 776 | 4430 | 5.35
N#Cc1ccccc1N1CCN(CCCCN2CC(=O)N3CCCCC3C2=O)CC1 (stereo unspecified) | 7.82 | 15 | 30 | 7.52
CCCNC(=O)c1ccccc1N1CCN(CCCN2C(=O)C3CCCN3C2=O)CC1 (stereo unspecified) | 6.09 | 808 | 608 | 6.22
CC(C)C(=O)Nc1cccc(N2CCN(CCCCN3CC(=O)N4CCCCC4C3=O)CC2)c1 (stereo unspecified) | 6.7 | 198 | 16100 | 4.79
N#Cc1ccccc1N1CCN(CCCCN2C(=O)C3CCCN3C2=O)CC1 (stereo unspecified) | 8.4 | 4 | 4.9 | 8.31
O=C1C2CCCCN2C(=O)CN1CCCN1CCN(c2ccccc2C(F)(F)F)CC1 (stereo unspecified) | 6.75 | 179 | 339 | 6.47

The next lines start with the values.

pK1 [1] | K1 [2] [nM] | K2 [3] [nM] | pK2 [3] | SMILES
6.72 | 193 | 5420 | 5.27 | CC(C)C(=O)Nc1cccc(N2CCN(CCCCN3C(=O)C4CCCN4C3=O)CC2)c1 (stereo unspecified)
8.26 | 5.5 | 72 | 7.14 | O=C1C2CCCN2C(=O)CN1CCCCN1CCN(c2ccccc2C(F)(F)F)CC1 (stereo unspecified)
8.06 | 8.7 | 10.5 | 7.98 | CCCCOc1ccccc1N1CCN(CCCCN2CC(=O)N3CCCC3C2=O)CC1 (stereo unspecified)
7.34 | 46 | 13 | 7.89 | CCCOC(=O)c1ccccc1N1CCN(CCCN2C(=O)C3CCCCN3C2=O)CC1 (stereo unspecified)
6.84 | 143 | 29 | 7.53 | Cc1ccccc1N1CCN(CCCN2CC(=O)N3CCCCC3C2=O)CC1 (stereo unspecified)
7.78 | 16 | 7 | 8.15 | Cc1ccccc1N1CCN(CCCCN2C(=O)C3CCCN3C2=O)CC1 (stereo unspecified)
8.27 | 5.4 | 5.9 | 8.23 | O=C1C2CCCCN2C(=O)N1CCCCN1CCN(c2cccc(Br)c2)CC1 (stereo unspecified)
5.93 | 1180 | 393 | 6.41 | Nc1cccc(N2CCN(CCCN3C(=O)C4CCCN4C3=O)CC2)c1 (stereo unspecified)
7.82 | 15 | 6.4 | 8.19 | CCCCOc1ccccc1N1CCN(CCCN2C(=O)C3CCCN3C2=O)CC1 (stereo unspecified)
7.47 | 34 | 25 | 7.61 | O=C1C2CCCN2C(=O)N1CCCN1CCN(c2cccc(Br)c2)CC1 (stereo unspecified)
6.66 | 220 | 5.7 | 8.25 | Cc1ccccc1N1CCN(CCCN2C(=O)C3CCCCN3C2=O)CC1 (stereo unspecified)
5.34 | 4610 | 811 | 6.09 | CCCNC(=O)c1ccccc1N1CCN(CCCN2CC(=O)N3CCCCC3C2=O)CC1 (stereo unspecified)
 |  | 12 | 7.93 | CCCOC(=O)c1ccccc1N1CCN(CCCN2CC(=O)N3CCCC3C2=O)CC1 (stereo unspecified)
8.66 | 2.2 | 5 | 8.3 | CCCCOc1ccccc1N1CCN(CCCCN2C(=O)C3CCCCN3C2=O)CC1 (stereo unspecified)
